Assay results: US20170320870A1 (Medical Research Council Technology, priority 2009, published 2017)

Legend:
Assay in all cases: Kinase selectivity: percentage inhibition of each specific kinase at 1 μM inhibitor concentration
Type in all cases: biochemical
[1] = molecular target: each specific kinase (kinase selectivity panel, Table 2) (Homo sapiens, UniProt P45983); settings: JNK1
Protocol: (§1) Values are expressed as percentage inhibition of the each specific kinase at 1 μM inhibitor concentration.

[2] = molecular target: each specific kinase (kinase selectivity panel, Table 2) (Homo sapiens, UniProt Q15303); settings: HER4
Protocol: as §1

[3] = molecular target: each specific kinase (kinase selectivity panel, Table 2) (Homo sapiens, UniProt P08069); settings: IGF-1R
Protocol: as §1

[4] = molecular target: each specific kinase (kinase selectivity panel, Table 2) (Homo sapiens, UniProt O43318); settings: TAK1
Protocol: as §1

[5] = molecular target: each specific kinase (kinase selectivity panel, Table 2) (Homo sapiens, UniProt P06213); settings: IR
Chain of each specific kinase (kinase selectivity panel, Table 2) (Homo sapiens, UniProt P06213) (P06213 28-1382): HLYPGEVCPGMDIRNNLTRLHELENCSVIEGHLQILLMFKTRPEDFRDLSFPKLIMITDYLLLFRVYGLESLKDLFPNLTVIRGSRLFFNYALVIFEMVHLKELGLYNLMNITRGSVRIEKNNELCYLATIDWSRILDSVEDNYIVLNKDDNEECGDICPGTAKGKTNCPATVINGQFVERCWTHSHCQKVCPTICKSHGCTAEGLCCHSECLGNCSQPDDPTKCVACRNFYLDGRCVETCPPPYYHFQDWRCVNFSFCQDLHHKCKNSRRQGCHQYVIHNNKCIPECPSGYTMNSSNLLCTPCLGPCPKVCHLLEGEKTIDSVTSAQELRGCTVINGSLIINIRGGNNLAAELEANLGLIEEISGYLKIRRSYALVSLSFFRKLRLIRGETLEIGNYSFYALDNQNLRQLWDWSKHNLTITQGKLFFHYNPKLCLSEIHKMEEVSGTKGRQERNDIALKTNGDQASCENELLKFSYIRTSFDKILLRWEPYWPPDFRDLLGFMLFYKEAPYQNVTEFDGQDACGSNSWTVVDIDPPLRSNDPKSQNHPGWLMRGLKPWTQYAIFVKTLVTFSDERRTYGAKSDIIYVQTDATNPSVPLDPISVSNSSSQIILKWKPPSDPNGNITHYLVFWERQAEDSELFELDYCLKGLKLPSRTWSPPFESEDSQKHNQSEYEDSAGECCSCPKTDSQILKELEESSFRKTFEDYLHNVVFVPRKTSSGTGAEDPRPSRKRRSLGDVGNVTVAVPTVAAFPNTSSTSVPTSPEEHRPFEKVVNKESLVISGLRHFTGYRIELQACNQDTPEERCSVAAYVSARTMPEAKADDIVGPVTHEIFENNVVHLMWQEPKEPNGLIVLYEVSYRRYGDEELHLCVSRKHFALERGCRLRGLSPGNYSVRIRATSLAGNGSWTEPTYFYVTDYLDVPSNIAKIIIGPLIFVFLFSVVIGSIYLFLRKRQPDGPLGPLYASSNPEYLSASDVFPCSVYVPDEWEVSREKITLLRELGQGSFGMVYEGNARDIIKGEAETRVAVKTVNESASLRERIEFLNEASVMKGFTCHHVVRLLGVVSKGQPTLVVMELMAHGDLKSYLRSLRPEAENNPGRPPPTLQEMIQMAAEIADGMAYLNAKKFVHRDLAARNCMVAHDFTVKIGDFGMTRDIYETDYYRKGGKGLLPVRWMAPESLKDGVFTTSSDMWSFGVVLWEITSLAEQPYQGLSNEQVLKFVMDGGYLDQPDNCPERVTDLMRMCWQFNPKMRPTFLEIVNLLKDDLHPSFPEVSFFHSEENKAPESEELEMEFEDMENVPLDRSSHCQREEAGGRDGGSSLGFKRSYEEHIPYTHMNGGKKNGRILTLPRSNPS
Protocol: as §1

[6] = molecular target: each specific kinase (kinase selectivity panel, Table 2) (Homo sapiens, UniProt O75582); settings: MSK1
Chain of each specific kinase (kinase selectivity panel, Table 2) (Homo sapiens, UniProt O75582) (O75582 whole entry): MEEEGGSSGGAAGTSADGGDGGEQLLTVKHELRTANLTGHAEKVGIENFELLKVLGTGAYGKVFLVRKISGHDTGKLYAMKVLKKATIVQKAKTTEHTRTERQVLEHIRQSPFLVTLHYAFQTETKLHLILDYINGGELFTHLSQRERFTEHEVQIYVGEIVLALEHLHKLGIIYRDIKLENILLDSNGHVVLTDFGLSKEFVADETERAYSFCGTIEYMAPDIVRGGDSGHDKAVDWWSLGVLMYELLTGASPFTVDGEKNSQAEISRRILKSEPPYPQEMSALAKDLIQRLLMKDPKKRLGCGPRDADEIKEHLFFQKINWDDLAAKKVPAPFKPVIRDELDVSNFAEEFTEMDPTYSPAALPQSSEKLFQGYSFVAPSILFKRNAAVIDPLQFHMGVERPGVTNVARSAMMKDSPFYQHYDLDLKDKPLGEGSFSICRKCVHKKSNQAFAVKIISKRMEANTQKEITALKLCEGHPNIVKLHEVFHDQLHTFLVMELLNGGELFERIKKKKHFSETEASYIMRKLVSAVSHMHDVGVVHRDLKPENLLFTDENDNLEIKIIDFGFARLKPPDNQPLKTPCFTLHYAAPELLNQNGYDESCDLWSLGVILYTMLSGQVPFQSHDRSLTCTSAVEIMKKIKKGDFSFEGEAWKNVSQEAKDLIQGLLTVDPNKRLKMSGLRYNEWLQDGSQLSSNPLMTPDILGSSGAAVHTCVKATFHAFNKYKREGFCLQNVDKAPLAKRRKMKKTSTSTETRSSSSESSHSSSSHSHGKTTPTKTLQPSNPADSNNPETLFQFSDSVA
Protocol: as §1

[7] = molecular target: each specific kinase (kinase selectivity panel, Table 2) (Homo sapiens, UniProt P29317); settings: EPH-A2
Chain of each specific kinase (kinase selectivity panel, Table 2) (Homo sapiens, UniProt P29317) (P29317 24-976): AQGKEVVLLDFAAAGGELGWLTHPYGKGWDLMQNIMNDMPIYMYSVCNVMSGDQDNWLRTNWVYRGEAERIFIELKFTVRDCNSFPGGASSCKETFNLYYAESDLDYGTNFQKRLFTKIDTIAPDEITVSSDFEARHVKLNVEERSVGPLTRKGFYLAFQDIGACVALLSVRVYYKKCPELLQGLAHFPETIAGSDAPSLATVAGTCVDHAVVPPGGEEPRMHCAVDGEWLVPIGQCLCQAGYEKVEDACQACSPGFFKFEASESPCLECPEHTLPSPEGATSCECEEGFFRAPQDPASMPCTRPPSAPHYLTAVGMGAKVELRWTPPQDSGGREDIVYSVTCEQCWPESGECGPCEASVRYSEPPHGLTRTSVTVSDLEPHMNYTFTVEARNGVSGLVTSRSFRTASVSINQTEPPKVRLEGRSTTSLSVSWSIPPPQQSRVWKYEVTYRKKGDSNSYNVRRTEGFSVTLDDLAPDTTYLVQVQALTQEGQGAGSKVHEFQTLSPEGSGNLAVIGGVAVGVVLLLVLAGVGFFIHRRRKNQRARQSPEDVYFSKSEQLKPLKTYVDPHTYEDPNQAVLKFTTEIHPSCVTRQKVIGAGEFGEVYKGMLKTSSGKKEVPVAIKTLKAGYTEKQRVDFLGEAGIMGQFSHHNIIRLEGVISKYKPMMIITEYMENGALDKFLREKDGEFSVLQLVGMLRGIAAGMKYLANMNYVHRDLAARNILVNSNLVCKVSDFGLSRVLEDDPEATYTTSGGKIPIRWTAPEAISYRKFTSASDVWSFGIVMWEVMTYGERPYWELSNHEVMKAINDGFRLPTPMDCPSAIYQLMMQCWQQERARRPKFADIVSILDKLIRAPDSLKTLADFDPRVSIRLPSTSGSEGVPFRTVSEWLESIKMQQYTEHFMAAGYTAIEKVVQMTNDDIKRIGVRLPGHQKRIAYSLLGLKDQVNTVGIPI
Protocol: as §1

[8] = molecular target: each specific kinase (kinase selectivity panel, Table 2) (Homo sapiens, UniProt O43353); settings: RIPK2
Protocol: as §1

[9] = molecular target: each specific kinase (kinase selectivity panel, Table 2) (Homo sapiens, UniProt Q02750); settings: MKK1
Protocol: as §1

[10] = molecular target: each specific kinase (kinase selectivity panel, Table 2) (Homo sapiens, UniProt P51955); settings: NEK2a
Chain of each specific kinase (kinase selectivity panel, Table 2) (Homo sapiens, UniProt P51955) (P51955 whole entry): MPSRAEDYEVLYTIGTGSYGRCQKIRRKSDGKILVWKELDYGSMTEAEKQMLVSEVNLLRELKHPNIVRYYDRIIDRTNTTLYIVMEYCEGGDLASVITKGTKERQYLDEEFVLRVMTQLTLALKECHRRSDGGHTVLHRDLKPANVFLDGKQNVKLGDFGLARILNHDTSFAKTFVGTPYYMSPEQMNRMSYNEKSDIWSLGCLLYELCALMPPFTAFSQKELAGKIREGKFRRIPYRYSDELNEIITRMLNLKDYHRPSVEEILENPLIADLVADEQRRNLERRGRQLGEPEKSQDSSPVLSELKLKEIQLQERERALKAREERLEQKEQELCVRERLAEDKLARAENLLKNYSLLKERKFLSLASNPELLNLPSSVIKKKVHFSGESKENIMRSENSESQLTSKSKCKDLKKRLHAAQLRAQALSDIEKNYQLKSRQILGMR
Protocol: as §1

[11] = molecular target: each specific kinase (kinase selectivity panel, Table 2) (Homo sapiens, UniProt Q9BUB5); settings: MNK1
Chain of each specific kinase (kinase selectivity panel, Table 2) (Homo sapiens, UniProt Q9BUB5) (Q9BUB5 whole entry): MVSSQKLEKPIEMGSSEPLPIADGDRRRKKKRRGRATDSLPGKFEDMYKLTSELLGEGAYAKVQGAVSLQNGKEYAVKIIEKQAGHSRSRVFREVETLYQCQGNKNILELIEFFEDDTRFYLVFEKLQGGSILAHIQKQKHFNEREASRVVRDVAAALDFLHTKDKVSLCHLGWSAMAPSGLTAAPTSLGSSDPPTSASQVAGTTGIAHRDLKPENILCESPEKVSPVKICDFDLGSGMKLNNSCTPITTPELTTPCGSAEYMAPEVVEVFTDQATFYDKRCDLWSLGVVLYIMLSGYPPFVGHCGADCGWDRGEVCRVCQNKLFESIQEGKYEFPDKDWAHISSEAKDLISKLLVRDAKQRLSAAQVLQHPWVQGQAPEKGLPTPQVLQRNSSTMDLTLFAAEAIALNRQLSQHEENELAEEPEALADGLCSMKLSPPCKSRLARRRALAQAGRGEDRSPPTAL
Protocol: as §1

[12] = molecular target: each specific kinase (kinase selectivity panel, Table 2) (Homo sapiens, UniProt P54753); settings: EPH-B3
Chain of each specific kinase (kinase selectivity panel, Table 2) (Homo sapiens, UniProt P54753) (P54753 34-998): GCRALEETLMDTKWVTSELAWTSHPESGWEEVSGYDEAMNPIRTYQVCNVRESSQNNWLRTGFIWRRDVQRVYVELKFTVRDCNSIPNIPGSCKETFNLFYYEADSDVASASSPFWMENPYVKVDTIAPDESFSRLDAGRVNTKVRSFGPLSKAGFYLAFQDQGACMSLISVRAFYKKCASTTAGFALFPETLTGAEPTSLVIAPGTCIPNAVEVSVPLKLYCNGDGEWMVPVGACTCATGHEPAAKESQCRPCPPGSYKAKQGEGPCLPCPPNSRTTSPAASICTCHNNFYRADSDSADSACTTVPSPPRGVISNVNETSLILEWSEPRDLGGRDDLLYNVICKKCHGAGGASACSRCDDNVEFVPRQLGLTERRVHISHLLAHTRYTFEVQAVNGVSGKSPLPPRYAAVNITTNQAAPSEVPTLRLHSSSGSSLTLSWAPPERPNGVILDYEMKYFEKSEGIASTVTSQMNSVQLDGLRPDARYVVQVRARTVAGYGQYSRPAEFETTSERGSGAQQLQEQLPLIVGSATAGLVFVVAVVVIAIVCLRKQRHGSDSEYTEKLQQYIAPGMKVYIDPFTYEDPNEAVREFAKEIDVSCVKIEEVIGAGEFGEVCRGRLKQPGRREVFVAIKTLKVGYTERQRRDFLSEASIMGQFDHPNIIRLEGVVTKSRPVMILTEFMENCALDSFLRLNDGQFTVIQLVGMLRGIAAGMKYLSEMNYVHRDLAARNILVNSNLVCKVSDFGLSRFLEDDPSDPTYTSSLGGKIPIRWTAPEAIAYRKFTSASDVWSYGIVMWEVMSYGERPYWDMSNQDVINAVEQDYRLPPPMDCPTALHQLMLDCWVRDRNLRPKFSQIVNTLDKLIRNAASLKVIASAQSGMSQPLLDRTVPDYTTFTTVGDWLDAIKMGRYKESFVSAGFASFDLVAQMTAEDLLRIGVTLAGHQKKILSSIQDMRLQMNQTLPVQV
Protocol: as §1

[13] = molecular target: each specific kinase (kinase selectivity panel, Table 2) (Homo sapiens, UniProt Q9P289); settings: MST4
Protocol: as §1

[14] = system: each specific kinase (kinase selectivity panel, Table 2)
Protocol: as §1

[15] = molecular target: each specific kinase (kinase selectivity panel, Table 2) (Homo sapiens, UniProt P04629); settings: TrkA
Protocol: as §1

[16] = molecular target: each specific kinase (kinase selectivity panel, Table 2) (Homo sapiens, UniProt P68400); settings: CK2
Protocol: as §1

[17] = molecular target: each specific kinase (kinase selectivity panel, Table 2) (Homo sapiens, UniProt P11309); settings: PIM1
Protocol: as §1

| SMILES | percentage inhibition of JNK1 [1] [percentage] | percentage inhibition of HER4 [2] [percentage] | percentage inhibition of IGF-1R [3] [percentage] | percentage inhibition of TAK1 [4] [percentage] | percentage inhibition of IR [5] [percentage] | percentage inhibition of MSK1 [6] [percentage] | percentage inhibition of EPH-A2 [7] [percentage] | percentage inhibition of RIPK2 [8] [percentage] | percentage inhibition of MKK1 [9] [percentage] | percentage inhibition of NEK2a [10] [percentage] | percentage inhibition of MNK1 [11] [percentage] | percentage inhibition of EPH-B3 [12] [percentage] | percentage inhibition of MST4 [13] [percentage] | percentage inhibition of AMPK [14] [percentage] | percentage inhibition of PHK [14] [percentage] | percentage inhibition of TrkA [15] [percentage] | percentage inhibition of CK2 [16] [percentage] | percentage inhibition of PIM1 [17] [percentage] |
| --- | --- | --- | --- | --- | --- | --- | --- | --- | --- | --- | --- | --- | --- | --- | --- | --- | --- | --- |
| CC[C@H](C)Oc1nccc2[nH]nc(C)c12 [Example 121, 4-((S)-sec-Butoxy)-3-methyl-1H-pyrazolo[4,3-c]pyridine] | 7 | 0 | 46 | 72 | 8 | 48 | 8 | 1 | 47 | 0 | 1 | 6 | 23 | 29 | 7 | 26 | 0 | 15 |
| O=C(CCc1n[nH]c2ccnc(NC3CCCCC3)c12)N1CCC[C@H](c2ccccc2)C1 [Example 172, 3-(4-Cyclohexylamino-1H-pyrazolo[4,3-c]pyridin-3-yl)-1-((R)-3-phenyl-piperidin-1-yl)-propan-1-one] | 17 | 10 | 18 | 9 | 4 | 1 | 0 | 0 | 17 | 5 | 0 | 3 | 10 | 0 | 26 | 5 | 3 | 0 |
